Laboratory results taken from patent US9963445B2, “Chemical compounds” (SYNGENTA PARTICIPATIONS AG, priority 2013, dated 2018).

System: Setaria faberi
Experiment: Post-emergence herbicidal activity, glasshouse pot test
Type: in vivo
Parameters: key: 0 = no damage to plant, 5 = total damage to plant
Conditions: Application post-emergence, rate 1000 g/ha, evaluated after 13 days
Summary of the method: (§1)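 Damage rated 0 (none) to 5 (total) 13 days after spraying. Plants were treated post-emergence at 8 days after sowing, using an acetone/water (50:50) formulation with 0.5% Tween 20 diluted to an aqueous spray.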

SMILES	SETFA herbicidal damage score
COC1=C(C)C(O)N(c2cc(C(C)(C)F)c(C#N)nn2)C1=O (stereo not drawn) [BI15]	5
COC1=C(C)C(O)N(c2cc(C(C)(C)F)c(C)nn2)C1=O (stereo not drawn) [BI16]	5
COC1=C(C)C(O)N(c2cc(C(C)(F)F)c(-c3ccc(F)cc3)nn2)C1=O (stereo not drawn) [BI17]	5
CC#Cc1nnc(N2C(=O)C(OC)=C(C)C2O)cc1C(C)(F)F (stereo not drawn) [BI18]	4

System: Abutilon theophrasti
Experiment: as above
Type: in vivo
Parameters: key: 0 = no damage to plant, 5 = total damage to plant
Conditions: Application post-emergence, rate 1000 g/ha, evaluated after 13 days
Summary of the method: as §1

SMILES	ABUTH herbicidal damage score
COC1=C(C)C(O)N(c2cc(C(C)(C)F)c(C#N)nn2)C1=O (stereo not drawn) [BI15]	5
COC1=C(C)C(O)N(c2cc(C(C)(C)F)c(C)nn2)C1=O (stereo not drawn) [BI16]	5
COC1=C(C)C(O)N(c2cc(C(C)(F)F)c(-c3ccc(F)cc3)nn2)C1=O (stereo not drawn) [BI17]	5
CC#Cc1nnc(N2C(=O)C(OC)=C(C)C2O)cc1C(C)(F)F (stereo not drawn) [BI18]	5

System: Alopecurus myosuroides
Experiment: as above
Type: in vivo
Parameters: key: 0 = no damage to plant, 5 = total damage to plant
Conditions: Application post-emergence, rate 1000 g/ha, evaluated after 13 days
Summary of the method: as §1

SMILES	ALOMY herbicidal damage score
COC1=C(C)C(O)N(c2cc(C(C)(C)F)c(C#N)nn2)C1=O (stereo not drawn) [BI15]	4
COC1=C(C)C(O)N(c2cc(C(C)(C)F)c(C)nn2)C1=O (stereo not drawn) [BI16]	4
COC1=C(C)C(O)N(c2cc(C(C)(F)F)c(-c3ccc(F)cc3)nn2)C1=O (stereo not drawn) [BI17]	4
CC#Cc1nnc(N2C(=O)C(OC)=C(C)C2O)cc1C(C)(F)F (stereo not drawn) [BI18]	3

System: Echinochloa crus-galli
Experiment: as above
Type: in vivo
Parameters: key: 0 = no damage to plant, 5 = total damage to plant
Conditions: Application post-emergence, rate 1000 g/ha, evaluated after 13 days
Summary of the method: as §1

SMILES	ECHCG herbicidal damage score
COC1=C(C)C(O)N(c2cc(C(C)(C)F)c(C#N)nn2)C1=O (stereo not drawn) [BI15]	5
COC1=C(C)C(O)N(c2cc(C(C)(C)F)c(C)nn2)C1=O (stereo not drawn) [BI16]	5
COC1=C(C)C(O)N(c2cc(C(C)(F)F)c(-c3ccc(F)cc3)nn2)C1=O (stereo not drawn) [BI17]	5
CC#Cc1nnc(N2C(=O)C(OC)=C(C)C2O)cc1C(C)(F)F (stereo not drawn) [BI18]	5

System: zea mays
Experiment: as above
Type: in vivo
Parameters: key: 0 = no damage to plant, 5 = total damage to plant
Conditions: Application post-emergence, rate 1000 g/ha, evaluated after 13 days
Summary of the method: as §1

SMILES	ZEAMX herbicidal damage score
COC1=C(C)C(O)N(c2cc(C(C)(C)F)c(C#N)nn2)C1=O (stereo not drawn) [BI15]	2
COC1=C(C)C(O)N(c2cc(C(C)(C)F)c(C)nn2)C1=O (stereo not drawn) [BI16]	4
COC1=C(C)C(O)N(c2cc(C(C)(F)F)c(-c3ccc(F)cc3)nn2)C1=O (stereo not drawn) [BI17]	3
CC#Cc1nnc(N2C(=O)C(OC)=C(C)C2O)cc1C(C)(F)F (stereo not drawn) [BI18]	2

System: Amaranthus retroflexus
Experiment: as above
Type: in vivo
Parameters: key: 0 = no damage to plant, 5 = total damage to plant
Conditions: Application post-emergence, rate 1000 g/ha, evaluated after 13 days
Summary of the method: as §1

SMILES	AMARE herbicidal damage score
COC1=C(C)C(O)N(c2cc(C(C)(C)F)c(C#N)nn2)C1=O (stereo not drawn) [BI15]	5
COC1=C(C)C(O)N(c2cc(C(C)(C)F)c(C)nn2)C1=O (stereo not drawn) [BI16]	5
COC1=C(C)C(O)N(c2cc(C(C)(F)F)c(-c3ccc(F)cc3)nn2)C1=O (stereo not drawn) [BI17]	5
CC#Cc1nnc(N2C(=O)C(OC)=C(C)C2O)cc1C(C)(F)F (stereo not drawn) [BI18]	5

System: Setaria faberi
Experiment: Pre-emergence herbicidal activity, glasshouse pot test
Type: in vivo
Conditions: pre-emergence spray, rate 1000 g/ha, evaluated after 13 days, scale 0-5
Summary of the method: (§2)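 Test species were sown in pots and, after one day under controlled glasshouse conditions, treated with an aqueous spray of the active ingredient in acetone/water containing 0.5% Tween 20. Evaluation followed 13 days later, scoring plant damage from 0 (none) to 5 (total).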

SMILES	SETFA damage score, application pre-emergence
COC1=C(C)C(O)N(c2cc(C(C)(C)F)c(C#N)nn2)C1=O (stereo not drawn) [BI15]	5
COC1=C(C)C(O)N(c2cc(C(C)(C)F)c(C)nn2)C1=O (stereo not drawn) [BI16]	5
COC1=C(C)C(O)N(c2cc(C(C)(F)F)c(-c3ccc(F)cc3)nn2)C1=O (stereo not drawn) [BI17]	4
CC#Cc1nnc(N2C(=O)C(OC)=C(C)C2O)cc1C(C)(F)F (stereo not drawn) [BI18]	3

System: Abutilon theophrasti
Experiment: as above
Type: in vivo
Conditions: pre-emergence spray, rate 1000 g/ha, evaluated after 13 days, scale 0-5
Summary of the method: as §2

SMILES	ABUTH damage score, application pre-emergence
COC1=C(C)C(O)N(c2cc(C(C)(C)F)c(C#N)nn2)C1=O (stereo not drawn) [BI15]	5
COC1=C(C)C(O)N(c2cc(C(C)(C)F)c(C)nn2)C1=O (stereo not drawn) [BI16]	5
COC1=C(C)C(O)N(c2cc(C(C)(F)F)c(-c3ccc(F)cc3)nn2)C1=O (stereo not drawn) [BI17]	4
CC#Cc1nnc(N2C(=O)C(OC)=C(C)C2O)cc1C(C)(F)F (stereo not drawn) [BI18]	4

System: Alopecurus myosuroides
Experiment: as above
Type: in vivo
Conditions: pre-emergence spray, rate 1000 g/ha, evaluated after 13 days, scale 0-5
Summary of the method: as §2

SMILES	ALOMY damage score, application pre-emergence
COC1=C(C)C(O)N(c2cc(C(C)(C)F)c(C#N)nn2)C1=O (stereo not drawn) [BI15]	4
COC1=C(C)C(O)N(c2cc(C(C)(C)F)c(C)nn2)C1=O (stereo not drawn) [BI16]	3
COC1=C(C)C(O)N(c2cc(C(C)(F)F)c(-c3ccc(F)cc3)nn2)C1=O (stereo not drawn) [BI17]	4
CC#Cc1nnc(N2C(=O)C(OC)=C(C)C2O)cc1C(C)(F)F (stereo not drawn) [BI18]	3

System: Echinochloa crus-galli
Experiment: as above
Type: in vivo
Conditions: pre-emergence spray, rate 1000 g/ha, evaluated after 13 days, scale 0-5
Summary of the method: as §2

SMILES	ECHCG damage score, application pre-emergence
COC1=C(C)C(O)N(c2cc(C(C)(C)F)c(C#N)nn2)C1=O (stereo not drawn) [BI15]	5
COC1=C(C)C(O)N(c2cc(C(C)(C)F)c(C)nn2)C1=O (stereo not drawn) [BI16]	4
COC1=C(C)C(O)N(c2cc(C(C)(F)F)c(-c3ccc(F)cc3)nn2)C1=O (stereo not drawn) [BI17]	3
CC#Cc1nnc(N2C(=O)C(OC)=C(C)C2O)cc1C(C)(F)F (stereo not drawn) [BI18]	3

System: zea mays
Experiment: as above
Type: in vivo
Conditions: pre-emergence spray, rate 1000 g/ha, evaluated after 13 days, scale 0-5
Summary of the method: as §2

SMILES	ZEAMX damage score, application pre-emergence
COC1=C(C)C(O)N(c2cc(C(C)(C)F)c(C#N)nn2)C1=O (stereo not drawn) [BI15]	2
COC1=C(C)C(O)N(c2cc(C(C)(C)F)c(C)nn2)C1=O (stereo not drawn) [BI16]	3
COC1=C(C)C(O)N(c2cc(C(C)(F)F)c(-c3ccc(F)cc3)nn2)C1=O (stereo not drawn) [BI17]	2
CC#Cc1nnc(N2C(=O)C(OC)=C(C)C2O)cc1C(C)(F)F (stereo not drawn) [BI18]	1

System: Amaranthus retroflexus
Experiment: as above
Type: in vivo
Conditions: pre-emergence spray, rate 1000 g/ha, evaluated after 13 days, scale 0-5
Summary of the method: as §2

SMILES	AMARE damage score, application pre-emergence
COC1=C(C)C(O)N(c2cc(C(C)(C)F)c(C#N)nn2)C1=O (stereo not drawn) [BI15]	5
COC1=C(C)C(O)N(c2cc(C(C)(C)F)c(C)nn2)C1=O (stereo not drawn) [BI16]	5
COC1=C(C)C(O)N(c2cc(C(C)(F)F)c(-c3ccc(F)cc3)nn2)C1=O (stereo not drawn) [BI17]	4
CC#Cc1nnc(N2C(=O)C(OC)=C(C)C2O)cc1C(C)(F)F (stereo not drawn) [BI18]	4
